Where “and” joins values, the source holds several entries; their conditions need not be identical. Equal entries are not always repeated. Numbers after ± are expanded uncertainties.
Settings: Liquid, Vibrating tube method

CCCCn1cc[n+](C)c1.O=S(=O)([O-])C(F)(F)F [1-butyl-3-methylimidazolium trifluoromethanesulfonate]
mass density (283.14 K, 20345 kPa): 1320.61 ± 1.8 kg/m3 | mass density (283.15 K, 101 kPa): 1309.81 ± 1.5 kg/m3 and 1309.8 ± 1.5 kg/m3 | mass density (283.15 K, 5337 kPa): 1312.37 ± 1.6 kg/m3 | mass density (283.15 K, 9906 kPa): 1315.03 ± 1.7 kg/m3 | mass density (283.15 K, 29997 kPa): 1325.6 ± 2 kg/m3 | mass density (283.15 K, 90097 kPa): 1353.37 ± 2.9 kg/m3 | mass density (283.15 K, 100086 kPa): 1357.13 ± 3 kg/m3 | mass density (283.15 K, 109957 kPa): 1361.36 ± 3.2 kg/m3 | mass density (283.15 K, 119997 kPa): 1365.53 ± 3.4 kg/m3 | mass density (283.15 K, 129993 kPa): 1369.54 ± 3.5 kg/m3 | mass density (283.15 K, 139996 kPa): 1373.39 ± 3.7 kg/m3 | mass density (283.16 K, 49996 kPa): 1335.42 ± 2.2 kg/m3 | mass density (283.16 K, 60363 kPa): 1340.27 ± 2.4 kg/m3 | mass density (283.16 K, 69993 kPa): 1344.64 ± 2.6 kg/m3 | mass density (283.16 K, 79621 kPa): 1348.88 ± 2.7 kg/m3 | mass density (283.17 K, 1225 kPa): 1310.35 ± 1.6 kg/m3 | mass density (283.17 K, 40094 kPa): 1330.63 ± 2.1 kg/m3 | mass density (288.15 K, 101 kPa): 1305.77 ± 1.5 kg/m3 | mass density (293.15 K, 101 kPa): 1301.75 ± 1.5 kg/m3 and 1301.72 ± 1.5 kg/m3 | mass density (293.15 K, 9722 kPa): 1307 ± 1.6 kg/m3 | mass density (293.15 K, 20425 kPa): 1312.86 ± 1.8 kg/m3 | mass density (293.15 K, 29997 kPa): 1317.9 ± 1.9 kg/m3 | mass density (293.15 K, 49997 kPa): 1327.93 ± 2.2 kg/m3 | mass density (293.15 K, 69996 kPa): 1337.34 ± 2.5 kg/m3 | mass density (293.15 K, 89996 kPa): 1346.17 ± 2.8 kg/m3 | mass density (293.15 K, 109846 kPa): 1354.33 ± 3.2 kg/m3 | mass density (293.15 K, 119150 kPa): 1358.24 ± 3.3 kg/m3 | mass density (293.15 K, 129846 kPa): 1362.58 ± 3.5 kg/m3 | mass density (293.15 K, 138949 kPa): 1366.14 ± 3.6 kg/m3 | mass density (293.16 K, 40322 kPa): 1323.16 ± 2.1 kg/m3 | mass density (293.16 K, 60340 kPa): 1332.87 ± 2.4 kg/m3 | mass density (293.16 K, 100028 kPa): 1350.06 ± 3 kg/m3 | mass density (293.17 K, 80507 kPa): 1342.04 ± 2.7 kg/m3 | mass density (293.2 K, 1740 kPa): 1302.55 ± 1.5 kg/m3 | mass density (293.2 K, 4978 kPa): 1304.2 ± 1.6 kg/m3 | mass density (298.13 K, 30005 kPa): 1314.25 ± 1.9 kg/m3 | mass density (298.13 K, 90001 kPa): 1342.82 ± 2.8 kg/m3 | mass density (298.14 K, 59968 kPa): 1329.2 ± 2.4 kg/m3 | mass density (298.15 K, 101 kPa): 1297.74 ± 1.5 kg/m3 and 1297.8 ± 1.5 kg/m3 | mass density (298.15 K, 1023 kPa): 1298.28 ± 1.5 kg/m3 | mass density (298.15 K, 10006 kPa): 1303.37 ± 1.6 kg/m3 | mass density (298.15 K, 19968 kPa): 1308.89 ± 1.8 kg/m3 | mass density (298.15 K, 40008 kPa): 1319.41 ± 2.1 kg/m3 | mass density (298.15 K, 49962 kPa): 1324.37 ± 2.2 kg/m3 | mass density (298.15 K, 70005 kPa): 1333.89 ± 2.5 kg/m3 | mass density (298.15 K, 79986 kPa): 1338.41 ± 2.7 kg/m3 | mass density (298.15 K, 99997 kPa): 1347.1 ± 3 kg/m3 | mass density (298.15 K, 109968 kPa): 1351.04 ± 3.1 kg/m3 | mass density (298.15 K, 120001 kPa): 1355.27 ± 3.3 kg/m3 | mass density (298.15 K, 139996 kPa): 1363.31 ± 3.6 kg/m3 | mass density (298.16 K, 5026 kPa): 1300.4 ± 1.6 kg/m3 | mass density (298.16 K, 130002 kPa): 1359.35 ± 3.5 kg/m3 | mass density (303.15 K, 101 kPa): 1293.74 ± 1.5 kg/m3 | mass density (313.13 K, 101 kPa): 1285.81 ± 1.5 kg/m3 | mass density (313.15 K, 101 kPa): 1285.7 ± 1.5 kg/m3 | mass density (313.15 K, 10395 kPa): 1291.48 ± 1.6 kg/m3 | mass density (313.15 K, 20326 kPa): 1296.92 ± 1.7 kg/m3 | mass density (313.15 K, 29996 kPa): 1302.11 ± 1.9 kg/m3 | mass density (313.15 K, 40009 kPa): 1307.36 ± 2 kg/m3 | mass density (313.15 K, 49994 kPa): 1312.48 ± 2.1 kg/m3 | mass density (313.15 K, 70102 kPa): 1322.42 ± 2.4 kg/m3 | mass density (313.15 K, 79871 kPa): 1327.08 ± 2.6 kg/m3 | mass density (313.15 K, 90021 kPa): 1331.79 ± 2.8 kg/m3 | mass density (313.15 K, 99922 kPa): 1336.27 ± 2.9 kg/m3 | mass density (313.15 K, 109826 kPa): 1340.63 ± 3.1 kg/m3 | mass density (313.15 K, 121633 kPa): 1345.69 ± 3.3 kg/m3 | mass density (313.15 K, 129825 kPa): 1349.1 ± 3.4 kg/m3 | mass density (313.15 K, 139153 kPa): 1352.88 ± 3.5 kg/m3 | mass density (313.16 K, 60130 kPa): 1317.55 ± 2.3 kg/m3 | mass density (313.2 K, 1097 kPa): 1286.27 ± 1.5 kg/m3 | mass density (313.2 K, 5364 kPa): 1288.67 ± 1.5 kg/m3 | mass density (333.09 K, 1557 kPa): 1270.96 ± 1.5 kg/m3 | mass density (333.1 K, 5234 kPa): 1273.19 ± 1.5 kg/m3 | mass density (333.11 K, 9847 kPa): 1275.96 ± 1.6 kg/m3 | mass density (333.14 K, 19578 kPa): 1281.68 ± 1.7 kg/m3 | mass density (333.15 K, 101 kPa): 1270.09 ± 1.4 kg/m3 and 1270.06 ± 1.4 kg/m3 | mass density (333.15 K, 29996 kPa): 1287.62 ± 1.8 kg/m3 | mass density (333.15 K, 69992 kPa): 1308.75 ± 2.4 kg/m3

From the NIST ThermoML archive (doi:10.1021/acs.jced.8b00837)
